Results taken from US4897390A, “Novel anti-obesity compounds and method of use” (priority 1987, dated 1990).

Tests used:
[1] = cited from earlier work
[2] = DHEA treatment in mice; cited from earlier work
[3] = tested on: thyroid stimulating hormone and thyroxine; details: cited from earlier work
[4] = tested on: uterine weight of the immature mouse; assay: Estrogenic effect: uterine weight of the immature mouse; format: in vivo, C57-WH mice
Description: Immature female C57-WH mice were maintained at 25° C. at 12 hours light/12 hours dark (lights on at 0800 h and off at 2000 h). Purina Lab Chow and water were available ad libitum. The control and each experimental group of animals consisted of six mice. Treatment began after an acclimation period of five days. Beginning at 27 days of age and continuing for three consecutive days, the mice were orally intubated with DHEA or β-MET suspended in sesame oil. The control mice received only sesame oil. Between 1400-1600 h on day 30, all animals were sacrificed by an overdose of ether. Uteri were removed, cleaned of adventitious tissue, and weighed to the nearest 0.5 mg.
All reported results are expressed as the mean plus or minus the standard error (mean±SE).

[5] = tested on: glucose-6-phosphate dehydrogenase (G6PD); details: cited from earlier work
NADH oxidase = details: cited from earlier work
fatty acid synthetase [6] = details: prolonged treatment; mice with excessive levels of this enzyme; cited from earlier work
fatty acid synthetase [7] = details: cited from earlier work
11β-hydroxylase = details: cited from earlier work
[8] = cited from earlier work; for deactivation and excretion from general circulation: once excreted from cells to the general circulation; for conjugation in blood stream: when excreted by individual cells to the blood stream
obesity [9] = details: known; cited from earlier work
[10] = Acute oral toxicity in mice (LD50); format: in vivo, C57-WH mice
Description: The LD50 of β-MET administered orally in mice could not be accurately determined. However, five male and five female C57-WH mice, each weighing approximately 15 g, received 200 mg of β-MET, suspended in sesame oil, by p.o. intubation.

[11] = Short-term (thirty day) treatment with large doses in mice; format: in vivo, C57-WH mice
Description: Five male and five female C57-WH mice (age: ~11 weeks, weight: ~15 g each) each received 200 mg/kg of β-MET, suspended in sesame oil, by p.o. intubation every second day for a period of thirty days. Another group of ten matched controls received only the sesame oil. […] Abnormalities such as hypertrophic lymph nodes, diarrhea, bloody stools, or loss of hair luster were not seen.

[12] = Cumulative food consumption of C57-WH mice treated with β-MET for 14 weeks; format: in vivo
Description: (§1) Forty C57-WH mice were maintained five per cage in a temperature-controlledroom (25° C.) with 12-h light/day (7:00 A.M. to 7:00 P.M.). All mice were at ten weeks of age when the experiment was begun.
(§2) The mice were divided into four groups: β-MET-treated female; control female; β-MET-treated male; and control male (for each group, n=10). All β-MET-treated animals received 0.07 mg (~4.6 mg/kg) of the β-MET administered as a suspension in sesame oil by PO intubation three times weekly. The control animals received only sesame oil. The mice were treated for a period of 14 weeks with access to Purina Laboratory chow and water ad libitum. Body weights were recorded weekly, and food consumption was determined by subtracting the food remaining from the food supplied at the beginning of each week.
(§3) Student's t-test was used in all statistical analyses of the data. Data are presented as means ±SD from the four groups of mice. Differences were considered significant at p<0.01.

Salmonella typhimurium = details: alone and with liver homogenate fraction from rat treated with polychlorinated biphenyl
Description: β-MET was tested for mutagenicity by administration to a his^- auxotrophic mutant of Salmonella typhimurium.β-MET was administered alone and with a liver homogenate fraction from a rat that had been treated with polychlorinated biphenyl.

[13] = Body weight of C57-WH mice treated with β-MET for 14 weeks; format: in vivo; details: for mean weight after 14 weeks: 0.07 mg (~4.6 mg/kg) PO three times weekly, n=10; for significance of difference in mean weights versus control: significant at p<0.01
Description: as §1, §2, §3

obesity [14] = assay: Anti-obesity efficacy in various mammalian systems (general statement); format: in vivo
[15] = 200 mg/kg p.o. every second day for thirty days

**Q.** With `C[C@]12CC[C@H](O)CC1=CC[C@@H]1[C@@H]2CC[C@]2(C)C(=O)CC[C@@H]12` [DHEA, dehydroepiandrosterone] as the compound, how does the toxicity in humans ([1]; in vivo) read?
**A.** relatively low toxicity in humans

**Q.** And the “estrogenic and androgenic effects” value ([1]; long-term administration, humans)?
**A.** Estrogenic and androgenic effects

**Q.** What about the “lipogenesis and fat cell size” value [2] of the same compound?
**A.** decreases in lipogenesis and fat cell size

**Q.** And the thyroid follicle epithelium ([3]; rat studies)?
**A.** hypertrophy of the thyroid follicle epithelium

**Q.** What about the “levels of thyroid stimulating hormone and thyroxine in the blood” value ([3]; rat, in vivo) of the same compound?
**A.** known to increase levels of thyroid stimulating hormone and thyroxine in the blood

**Q.** And the Uterine weight ([4]; daily dose 400.0 mg/kg, oral, three consecutive days from day 27, mean±SE, control 58.0 ± 3)?
**A.** 257.0 ± 5 mg/100 g body weight

**Q.** What about the “inhibition of mammalian G6PD” value [5] of the same compound?
**A.** known to inhibit mammalian glucose-6-phosphate dehydrogenase

**Q.** And the “inhibition of NADH oxidase” value (NADH oxidase)?
**A.** known inhibitor of NADH oxidase

**Q.** What about the “liver and adipose tissue fatty acid synthetase activity” value (fatty acid synthetase [6]) of the same compound?
**A.** decrease liver and adipose tissue fatty acid synthetase activity

**Q.** And the “inhibition of fatty acid synthetase” value (fatty acid synthetase [7])?
**A.** known to directly inhibit fatty acid synthetase

**Q.** And the “inhibition of 11β-hydroxylase” value (11β-hydroxylase)?
**A.** known to inhibit 11β-hydroxylase

**Q.** Which “deactivation and excretion from general circulation” value [8] does the source give for `C[C@]12CC[C@@H](O)C[C@H]1CC[C@@H]1[C@@H]2CC[C@]2(C)C(=O)CC[C@@H]12` [α-HET, 3α-hydroxyetiocholanone] here?
**A.** rapidly deactivated and excreted from the body

**Q.** And the “conjugation in blood stream” value [8]?
**A.** conjugated to glucuronic acid at the 3-hydroxy position

**Q.** And the “anti-obesity effects attributed to DHEA” value (obesity [9])?
**A.** known to accomplish the anti-obesity effects attributed to DHEA

**Q.** What does the source list for `C[C@]12CC[C@H](O)C[C@H]1CC[C@@H]1[C@@H]2CC[C@]2(C)C(=O)CC[C@@H]12` [β-HET, 5-β-androstan-3-β-ol-17-one]?
**A.** deactivation and excretion from general circulation [8]: rapidly deactivated and excreted from the body; conjugation in blood stream [8]: conjugated to glucuronic acid at the 3-hydroxy position; anti-obesity effects attributed to DHEA (obesity [9]): known to accomplish the anti-obesity effects attributed to DHEA

**Q.** Which survival ([10]; 200 mg p.o. per ~15 g mouse, five male and five female) does the source give for `C[C@H]1CC[C@@]2(C)[C@H](CC[C@@H]3[C@@H]2CC[C@]2(C)C(=O)CC[C@@H]32)C1` [β-MET, 3-β-methyl-5-β-androstan-17-one] here?
**A.** All of the animals survived

**Q.** What about the LD50 ([10]; mouse, in vivo, po, mice, p.o. in sesame oil) of the same compound?
**A.** > 10000 mg/kg

**Q.** And the “behavioral or external physical differences from controls” value [11, 15]?
**A.** no obvious behavioral or external physical differences from controls

**Q.** What about the “hypertrophic lymph nodes, diarrhea, bloody stools, or loss of hair luster” value [11, 15] of the same compound?
**A.** not seen

**Q.** What about the postmortem studies [11, 15] of the same compound?
**A.** no gross abnormalities or visible pathological changes

**Q.** And the survival and health [11, 15]?
**A.** all experimental mice were alive and apparently healthy

**Q.** What about the “harm by short-term treatment with relatively large doses” value ([11]; approximately 20x the effective anti-obesity dose in mice) of the same compound?
**A.** appears not to be harmful to mice

**Q.** What about the “examination of visible membranes” value ([11]; mouse, in vivo, po, 200 mg/kg) of the same compound?
**A.** no abnormal findings

**Q.** And the “food intake versus control” value ([12]; female, 14 weeks (FIG. 6))?
**A.** not significantly different

**Q.** What about the effect on appetite ([12]; male and female (FIG. 6)) of the same compound?
**A.** without suppressing appetite

**Q.** And the “cumulative food consumption versus control” value ([12]; male, 14 weeks (FIG. 6))?
**A.** not significantly different

**Q.** What about the mutagenicity (Salmonella typhimurium) of the same compound?
**A.** not mutagenic

**Q.** And the estrogenic activity ([4]; mouse, in vivo)?
**A.** does not exhibit similar estrogenic activity

**Q.** What about the “mean weight after 14 weeks” value ([13]; female, control female 26.1 g) of the same compound?
**A.** 21.8 g

**Q.** And the “significance of difference in mean weights versus control” value ([13]; female)?
**A.** a significant difference in mean weights was observed after the third week of treatment

**Q.** What about the “inhibition of weight gain” value ([13]; male and female C57-WH mice, 14 weeks (FIG. 5)) of the same compound?
**A.** significantly inhibits weight gain

**Q.** And the “mean weight after 14 weeks” value ([13]; male, control male 24.8 g)?
**A.** 20.7 g

**Q.** What about the “significance of difference in mean weights versus control” value ([13]; male) of the same compound?
**A.** statistically significant after the sixth week of treatment

**Q.** What about the “inhibition of obesity in comparison to 3β-HET” value (obesity [14]; comparison to 3β-HET) of the same compound?
**A.** much more effective inhibitor of obesity

**Q.** And the “antiobesity efficacy and safety” value (obesity [14]; various mammalian systems)?
**A.** safe and effective antiobesity agent
